Key:
rodent = details: classification of the substance (C+/C−); cited from earlier work
liver = details: classification of the substance (Cr+/Cr−); cited from earlier work
[1] = classification of the substance (M+/M−); cited from earlier work
[2] = system: mRNA expressed from the genes (A) to (D) in rat liver; assay: Behavior of genes (mRNA expression level, oligo-DNA microarray) in rat liver after 28-day oral administration; assay type: in vivo; details: mRNA vs vehicle control group; for Behavior of gene caused by administration of chemical substance, Gene No. 4846 / Behavior of gene caused by administration of chemical substance, Gene No. 2026 / Behavior of gene caused by administration of chemical substance, Gene No. 4218 / Behavior of gene caused by administration of chemical substance, Gene No. 6182 / Behavior of gene caused by administration of chemical substance, Gene No. 5600: gene group (A); for Behavior of gene caused by administration of chemical substance, Gene No. 4846: Unigene No. Rn.144554; for Behavior of gene caused by administration of chemical substance, Gene No. 2026 / Behavior of gene caused by administration of chemical substance, Gene No. 4218: Unigene No. Rn.167075; for Behavior of gene caused by administration of chemical substance, Gene No. 6182: Unigene No. Rn.5834; for Behavior of gene caused by administration of chemical substance, Gene No. 5600: Unigene No. Rn.9836; for Behavior of gene caused by administration of chemical substance, Gene No. 1494 / Behavior of gene caused by administration of chemical substance, Gene No. 2045 / Behavior of gene caused by administration of chemical substance, Gene No. 2203: gene group (B); for Behavior of gene caused by administration of chemical substance, Gene No. 1494: Unigene No. Rn.1430; for Behavior of gene caused by administration of chemical substance, Gene No. 2045: Unigene No. Rn.19329; for Behavior of gene caused by administration of chemical substance, Gene No. 2203: Unigene No. Rn.21240; for Behavior of gene caused by administration of chemical substance, Gene No. 533 / Behavior of gene caused by administration of chemical substance, Gene No. 725 / Behavior of gene caused by administration of chemical substance, Gene No. 1163 / Behavior of gene caused by administration of chemical substance, Gene No. 4973 / Behavior of gene caused by administration of chemical substance, Gene No. 4095 / Behavior of gene caused by administration of chemical substance, Gene No. 1334 / Behavior of gene caused by administration of chemical substance, Gene No. 6620 / Behavior of gene caused by administration of chemical substance, Gene No. 6303 / Behavior of gene caused by administration of chemical substance, Gene No. 5878 / Behavior of gene caused by administration of chemical substance, Gene No. 1131 / Behavior of gene caused by administration of chemical substance, Gene No. 1562 / Behavior of gene caused by administration of chemical substance, Gene No. 1741 / Behavior of gene caused by administration of chemical substance, Gene No. 893 / Behavior of gene caused by administration of chemical substance, Gene No. 6026 / Behavior of gene caused by administration of chemical substance, Gene No. 154 / Behavior of gene caused by administration of chemical substance, Gene No. 1993 / Behavior of gene caused by administration of chemical substance, Gene No. 813 / Behavior of gene caused by administration of chemical substance, Gene No. 2494 / Behavior of gene caused by administration of chemical substance, Gene No. 2546 / Behavior of gene caused by administration of chemical substance, Gene No. 3776 / Behavior of gene caused by administration of chemical substance, Gene No. 3929 / Behavior of gene caused by administration of chemical substance, Gene No. 1119 / Behavior of gene caused by administration of chemical substance, Gene No. 6742 / Behavior of gene caused by administration of chemical substance, Gene No. 5634: gene group (C); for Behavior of gene caused by administration of chemical substance, Gene No. 533: Unigene No. Rn.106184; for Behavior of gene caused by administration of chemical substance, Gene No. 725: Unigene No. Rn.108075; for Behavior of gene caused by administration of chemical substance, Gene No. 1163: Unigene No. Rn.11766; for Behavior of gene caused by administration of chemical substance, Gene No. 4973: Unigene No. Rn.118529; for Behavior of gene caused by administration of chemical substance, Gene No. 4095: Unigene No. Rn.119024; for Behavior of gene caused by administration of chemical substance, Gene No. 1334 / Behavior of gene caused by administration of chemical substance, Gene No. 6620: Unigene No. Rn.120914; for Behavior of gene caused by administration of chemical substance, Gene No. 6303: Unigene No. Rn.123063; for Behavior of gene caused by administration of chemical substance, Gene No. 5878: Unigene No. Rn.143213; for Behavior of gene caused by administration of chemical substance, Gene No. 1131: Unigene No. Rn.144946; for Behavior of gene caused by administration of chemical substance, Gene No. 1562: Unigene No. Rn.14744; for Behavior of gene caused by administration of chemical substance, Gene No. 1741: Unigene No. Rn.1647; for Behavior of gene caused by administration of chemical substance, Gene No. 893: Unigene No. Rn.164817; for Behavior of gene caused by administration of chemical substance, Gene No. 6026: Unigene No. Rn.167685; for Behavior of gene caused by administration of chemical substance, Gene No. 154: Unigene No. Rn.185941; for Behavior of gene caused by administration of chemical substance, Gene No. 1993: Unigene No. Rn.18728; for Behavior of gene caused by administration of chemical substance, Gene No. 813: Unigene No. Rn.201760; for Behavior of gene caused by administration of chemical substance, Gene No. 2494: Unigene No. Rn.23969; for Behavior of gene caused by administration of chemical substance, Gene No. 2546: Unigene No. Rn.24561; for Behavior of gene caused by administration of chemical substance, Gene No. 3776: Unigene No. Rn.43232; for Behavior of gene caused by administration of chemical substance, Gene No. 3929: Unigene No. Rn.4620; for Behavior of gene caused by administration of chemical substance, Gene No. 1119: Unigene No. Rn.9757; for Behavior of gene caused by administration of chemical substance, Gene No. 6742: Unigene No. Rn.9779; for Behavior of gene caused by administration of chemical substance, Gene No. 5634: Unigene No. Rn.9862; for Behavior of gene caused by administration of chemical substance, Gene No. 5726: gene group (D), Unigene No. Rn.9939
In short: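 Oral gavage, once daily × 28 days; male F344 SPF rats, 5 wk, n=4/group; vehicle controls given equal solvent volume. Liver excised day 28, total RNA purified. Significance: ≥1.5× or ≤1/1.5 of vehicle, direction concordant with other carcinogens.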

Row | Compound | Mutagenicity by Ames test [1] | Behavior of gene caused by administration of chemical substance, Gene No. 4846 [2] | Behavior of gene caused by administration of chemical substance, Gene No. 2026 [2] | Behavior of gene caused by administration of chemical substance, Gene No. 4218 [2] | Behavior of gene caused by administration of chemical substance, Gene No. 6182 [2] | Behavior of gene caused by administration of chemical substance, Gene No. 5600 [2] | Behavior of gene caused by administration of chemical substance, Gene No. 1494 [2] | Behavior of gene caused by administration of chemical substance, Gene No. 2045 [2] | Behavior of gene caused by administration of chemical substance, Gene No. 2203 [2] | Behavior of gene caused by administration of chemical substance, Gene No. 533 [2] | Behavior of gene caused by administration of chemical substance, Gene No. 725 [2] | Behavior of gene caused by administration of chemical substance, Gene No. 1163 [2] | Behavior of gene caused by administration of chemical substance, Gene No. 4973 [2] | Behavior of gene caused by administration of chemical substance, Gene No. 4095 [2] | Behavior of gene caused by administration of chemical substance, Gene No. 1334 [2] | Behavior of gene caused by administration of chemical substance, Gene No. 6620 [2] | Behavior of gene caused by administration of chemical substance, Gene No. 6303 [2] | Behavior of gene caused by administration of chemical substance, Gene No. 5878 [2] | Behavior of gene caused by administration of chemical substance, Gene No. 1131 [2] | Behavior of gene caused by administration of chemical substance, Gene No. 1562 [2] | also measured
1 | CCSCCC(N)C(=O)O (racemic) [TS070, D,L-Ethionine] | M− | − | − | − | − | − | + | − | + | − | + | − | − | − | − | − | − | − | − | − | Carcinogenicity (rodent): C+; Liver carcinogenicity (liver): Cr+; Behavior of gene caused by administration of chemical substance, Gene No. 1741 [2]: −; Behavior of gene caused by administration of chemical substance, Gene No. 893 [2]: −; Behavior of gene caused by administration of chemical substance, Gene No. 6026 [2]: −; Behavior of gene caused by administration of chemical substance, Gene No. 154 [2]: −; Behavior of gene caused by administration of chemical substance, Gene No. 1993 [2]: −; Behavior of gene caused by administration of chemical substance, Gene No. 813 [2]: −; Behavior of gene caused by administration of chemical substance, Gene No. 2494 [2]: −; Behavior of gene caused by administration of chemical substance, Gene No. 2546 [2]: −; Behavior of gene caused by administration of chemical substance, Gene No. 3776 [2]: −; Behavior of gene caused by administration of chemical substance, Gene No. 3929 [2]: −; Behavior of gene caused by administration of chemical substance, Gene No. 1119 [2]: −; Behavior of gene caused by administration of chemical substance, Gene No. 6742 [2]: −; Behavior of gene caused by administration of chemical substance, Gene No. 5634 [2]: −; Behavior of gene caused by administration of chemical substance, Gene No. 5726 [2]: −
2 | CCC1(c2ccccc2)C(=O)NC(=O)NC1=O [TS008, Phenobarbital] | M− | + | − | − | − | − | + | − | − | + | + | − | + | + | + | + | + | − | − | + | Behavior of gene caused by administration of chemical substance, Gene No. 1741 [2]: +; Behavior of gene caused by administration of chemical substance, Gene No. 893 [2]: +; Behavior of gene caused by administration of chemical substance, Gene No. 6026 [2]: +; Behavior of gene caused by administration of chemical substance, Gene No. 154 [2]: +; Behavior of gene caused by administration of chemical substance, Gene No. 1993 [2]: +; Behavior of gene caused by administration of chemical substance, Gene No. 813 [2]: +; Behavior of gene caused by administration of chemical substance, Gene No. 2494 [2]: +; Behavior of gene caused by administration of chemical substance, Gene No. 2546 [2]: +; Behavior of gene caused by administration of chemical substance, Gene No. 3776 [2]: −; Behavior of gene caused by administration of chemical substance, Gene No. 3929 [2]: +; Behavior of gene caused by administration of chemical substance, Gene No. 1119 [2]: +; Behavior of gene caused by administration of chemical substance, Gene No. 6742 [2]: +; Behavior of gene caused by administration of chemical substance, Gene No. 5634 [2]: +; Behavior of gene caused by administration of chemical substance, Gene No. 5726 [2]: −
